Marks after values point to notes of the source that are not given here.
What was measured:
Format in all cases: in vivo
Phytophthora infestans [1] = conditions: 40 ppm test suspension (asterisk); tomato seedlings sprayed the day before inoculation with Phytophthora infestans; rating 100 = 100% disease control, 0 = no control relative to the controls
Plasmopara viticola = experiment: Test A: grape downy mildew, grape seedlings sprayed after inoculation, visual disease rating; conditions: 40 ppm test suspension (asterisk); grape seedlings sprayed 24 h after inoculation with Plasmopara viticola; rating 100 = 100% disease control, 0 = no control relative to the controls
Phytophthora infestans [2] = conditions: 40 ppm test suspension (asterisk); tomato seedlings sprayed 17 h after inoculation with Phytophthora infestans; rating 100 = 100% disease control, 0 = no control relative to the controls

Compound | Test B rating (disease control, tomato late blight) (Phytophthora infestans [1]) | Test A rating (disease control, grape downy mildew) (Plasmopara viticola) | Test C rating (disease control, tomato late blight) (Phytophthora infestans [2])
Cc1cc(C(F)(F)F)nn1CC(=O)N1CCC(c2nc(C3=NOC(c4c(F)cccc4F)C3)cs2)CN1 (stereo not drawn) [Compound 1, 1-[4-[4-[5-(2,6-difluorophenyl)-4,5-dihydro-3-isoxazolyl]-2-thiazolyl]tetrahydro-1(2H)-pyridazinyl]-2-[5-methyl-3-(trifluoromethyl)-1H-pyrazol-1-yl]ethanone] | 100* % | 99* % | 99* %
CC(=O)N1CC(c2nc(C3=NOC(c4c(F)cccc4F)C3)cs2)CCN1C(=O)Cn1nc(C(F)(F)F)cc1C (stereo not drawn) [Compound 2, 1-[2-Acetyl-4-[4-[5-(2,6-difluorophenyl)-4,5-dihydro-3-isoxazolyl]-2-thiazolyl]tetrahydro-1(2H)-pyridazinyl]-2-[5-methyl-3-(trifluoromethyl)-1H-pyrazol-1-yl]ethanone] | 100* % | 89* % | 98* %
Cc1cc(C(F)(F)F)nn1CC(=O)N1CCC(c2nc(C3=NOC(c4c(F)cccc4F)C3)cs2)CO1 (stereo not drawn) [Compound 3] | 100* % | 100* % | 99* %
Cc1cc(C(F)(F)F)nn1CC(=O)N1CC2CN(c3nc(C4=NOC(c5c(F)cccc5F)C4)cs3)CC2C1 (stereo not drawn) [Compound 4, 1-[5-[4-[5-(2,6-difluorophenyl)-4,5-dihydro-3-isoxazolyl]-2-thiazolyl]hexahydropyrrolol[3,4-c]pyrrol-2(1H)-yl]-2-[5-methyl-3-(trifluoromethyl)-1H-pyrazol-1-yl]ethanone] | 100* % | 99* % | 99* %

Reference: US8835427B2, “Fungicidal heterocyclic compounds” (priority 2010, dated 2014)
